# Values quoted from earlier work in patent publication US11376246B2, “Inhibiting mutant IDH-1” (FORMA Therapeutics, Inc., priority 2018, dated 2022).
# Conditions: Literature reported data; cited from earlier work
structure (smiles),measurement,value
N#Cc1ccnc(N2C(=O)CC[C@H]2C(=O)N(c2cncc(F)c2)[C@H](C(=O)NC2CC(F)(F)C2)c2ccccc2Cl)c1 [AG-120],BBB+,No
